The results in this text go back to patent publication US4076830A, “Alkylmethanodibenzocycloheptapyrroles” (E. I. Du Pont de Nemours and Company, priority 1976, dated 1978).

Data set [1] can be described thus: general tranquilizer activity in mice (exploratory loss, ptosis, catatonia, muscle tone, grip and lift reflexes, pinna twitch reflex, tremors, death). As to conditions: mouse, in vivo, po. The method, then: (§1) Groups of five Carworth CF1 S female mice, 16-20 g each, were fasted 16-22 hours before use. The mice were put in opaque plastic "shoe-box" cages 15-30 min. before injection, and then treated orally with 4, 12, 36, 108 and 324 mg/kg of the compound to be tested […] in 1% aqueous distilled water solution of methylcellulose (Methocel®). Each dose was given in a standard volume of 0.45 ml. Observations were made at 0.5, 2 and 24 hours after dosing. ED50 values were calculated for each parameter including death (LD50). The ED50 and LD50 values are the doses at which 50% of the animals would be expected to respond.
(§2) Exploratory Activity - The mouse is placed on a stainless steel wire mesh screen (8 inches × 12 inches, 3 mesh per inch, 174 inch mesh openings) "shoe-box" lid (1 inch high) and is observed for normal activities, such as nose movements, head movements with apparent visual examination of the area, and/or walking around on the screen. Absence of or marked depression of these activities for 5 seconds constitutes loss of exploratory activity.
(§3) Ptosis - The mouse is picked up by the tail and placed on the screen with its head facing the observer. Bilateral eyelid closure of 50% or more two seconds after placement is considered ptosis.
(§4) Catatonia - The mouse is placed with its front paws on the edge of a stainless steel "shoe-box" cover, 1 inch high, covered with adhesive tape. Failure to remove both paws from the cover's edge within 5 seconds constitutes catatonia.
(§5) Muscle Tone - The observer gently strokes the abdominal musculature of the mouse with thumb and forefinger. Flaccidity (or rarely, tenseness) is recorded.
(§6) Grip and Lift Reflexes - The mouse is gently swung by the tail toward a horizontal 12 gauge wire tautly stretched 25 cm above the bench. After the mouse grasps the wire with its forepaws, its posterior end is held directly below the wire. A normal mouse grasps the wire with its forepaws and immediately lifts its hind limbs to the wire. Failure to grasp the wire with the forepaws in both trials constitutes loss of the grip reflex; failure to lift the hind limbs to grasp the wire with at least one hind paw within 5 seconds constitutes loss of the lift reflex.
(§7) Pinna Twitch Reflex - The mouse is placed on the bar 10-20 cm horizontally and 9 cm vertically from a Galton whistle adjusted for 13 kc (5 mm on the whistle scale) and is subjected to several short bursts of sound.
(§8) The ED50 values, i.e., the dose which caused the response in 50% of the mice, are tabulated.

A further data set deals with female white mice. The description is as above. The conditions noted are these: for ED50: Mus musculus, po. The method, then: as §1, §2, §3, §4, §5, §6, §7, §8
Data set [2] has as its system phenylquinone-induced writhing. The data set can be described thus: analgesic activity: prevention of phenylquinone-induced writhing in mice. The conditions noted are these: oral, phenylquinone 1.1 mg/kg intraperitoneally. The data set is classed as in vivo, mouse (Carworth CF1 S female mice). The text has this: This mouse test is predictive of analgesic response in humans. [E. Siegmund, R. Cadmus and G. Lee, Proc. Soc.
ED50 values were obtained graphically from the data.

The mark [3] stands for this setting: read-out: ED50 Catatonia, oral, mice, observed at 0.5, 2 and 24 hours.
Where [4] appears, read: read-out: ED50 Exploratory Loss Visual, oral, mice, observed at 0.5, 2 and 24 hours.
The mark [5] stands for this setting: read-out: ED50 Muscle Tone, oral, mice, observed at 0.5, 2 and 24 hours.
[6] abbreviates: read-out: ED50 Ptosis, oral, mice, observed at 0.5, 2 and 24 hours.
[7] abbreviates: read-out: ED50 Reflexes Grip, oral, mice, observed at 0.5, 2 and 24 hours.
Where [8] appears, read: read-out: ED50 Reflexes Lift, oral, mice, observed at 0.5, 2 and 24 hours.
The mark [9] stands for this setting: read-out: ED50 Reflexes Pinna, oral, mice, observed at 0.5, 2 and 24 hours.
[10] abbreviates: read-out: ED50 Tremors, oral, mice, observed at 0.5, 2 and 24 hours.
[11] abbreviates: oral, mice, observed at 0.5, 2 and 24 hours.
Setting [12] is: oral, mice, observed at 0.5, 2 and 24 hours, hydrochloride.

Structures can show the parent of a compound that is named as a salt. Where two headings read alike, the source gives them in different places.

In turn, `CN1C[C@@H]2c3ccccc3[C@]3(C)C[C@@]2(C1)c1ccccc13` (relative stereo) [Example 2, 2,8-Dimethyl-trans-2,3,8,12b-tetrahydro-1H-3a,8-methanodibenzo[3,4:6,7]cyclohepta[1,2-c]pyrrole Hydrochloride] showed an LD50 at 24 h in data set [1] of 300 mg/kg. In addition, the median effective dose (ED50) with female white mice (setting [3]) was 60 mg/kg; in the data set with female white mice (setting [4]) it was 60 mg/kg; in the data set with female white mice (setting [5]), 36 mg/kg; with female white mice (setting [6]), 60 mg/kg; in the data set with female white mice (setting [7]), 60 mg/kg; in the data set with female white mice (setting [8]), 60 mg/kg. For the same compound, the 50% effective dose (ED50) with female white mice (setting [9]) and in the data set with female white mice (setting [10]) was 60 mg/kg throughout. The “Phenylquinone Analgesia (activity in words)” value in data set [2] is given as “Active”.

For the compound `CC1[C@@H]2c3ccccc3[C@@H]3C[C@@]2(CN1CC1CCCC1)c1ccccc13` (stereo partly drawn) [Example 3g, 2-cyclopentylmethyl-1-methyl-trans-2,3,8,12b-tetrahydro-1H-3a,8-methanodibenzo[3,4:6,7]cyclohepta[1,2-c]pyrrole, hydrochloride], in data set [1], the 50% lethal dose (LD50) at 24 h was > 324 mg/kg. The ED50 in the data set on female white mice (setting [3]) was 20 mg/kg; with female white mice (setting [4]), 7 mg/kg; in the data set with female white mice (setting [5]), 20 mg/kg; with female white mice (setting [6]) it was 12 mg/kg; in the data set with female white mice (setting [7]), > 324 mg/kg; in the data set with female white mice (setting [8]), 36 mg/kg. The 50% effective dose (ED50) in the data set on female white mice (setting [9]) is 20 mg/kg; in the data set with female white mice (setting [10]) it was > 324 mg/kg. Besides, in data set [2], the “Phenylquinone Analgesia (activity in words)” value is “Active”.

For `CC1[C@@H]2c3ccccc3[C@@H]3C[C@@]2(CN1CC1CCCC1)c1ccccc13` (stereo partly drawn) [Example 3h, 2-cyclopentylmethyl-1-methyl-trans-2,3,8,12b-tetrahydro-1H-3a,8-methanodibenzo[3,4:6,7]-cyclohepta[1,2-c]pyrrole hydrochloride], in the data set on female white mice (24-hour value, oral, mice), the LD50 is > 324 mg/kg. Also, in the data set with female white mice (setting [11]), the “ED50 Muscle Tone” value was 20 mg/kg, the “ED50 Reflexes Grip” value is reported as > 324 mg/kg and the “ED50 Tremors” value was > 324 mg/kg. Moreover, in the data set with female white mice (setting [12]), the “ED50 Catatonia” value is recorded as 12 mg/kg, the “ED50 Exploratory Loss Visual” value is recorded as < 4 mg/kg, the “ED50 Ptosis” value worked out at 20 mg/kg and the “ED50 Reflexes Lift” value came out at 20 mg/kg. For the same compound, the “ED50 Reflexes Pinna” value with female white mice (setting [12]) came out at 12 mg/kg.

As to `C[C@]12C[C@@]3(CN(CC4CCCCC4)C[C@@H]3c3ccccc31)c1ccccc12` (relative stereo) [Example 1, 2-Cyclohexylmethyl-8-methyl-trans-2,3,8,12b-tetra-hydro-1H-3a,8-methanodibenzo[3,4:6,7]cyclohepta[1,2-c]-pyrrole Hydrochloride], the 50% lethal dose (LD50) at 24 h in data set [1] was > 324 mg/kg. Besides, the median effective dose (ED50) is 109 mg/kg in the data set with female white mice (setting [3]); 87 mg/kg in the data set with female white mice (setting [4]); 109 mg/kg in the data set with female white mice (setting [5]); 87 mg/kg in the data set with female white mice (setting [6]); > 324 mg/kg with female white mice (setting [7]); 97 mg/kg in the data set with female white mice (setting [8]). Besides, the median effective dose (ED50) in the data set on female white mice (setting [9]) is 109 mg/kg; in the data set on female white mice (setting [10]) it was > 324 mg/kg; in data set [2] (Mus musculus, dose blocking writhing in 50% of mice, read-out: ED50 Phenylquinone Analgesia), 30 mg/kg.

In the case of `CN1C(=O)CN=C(c2ccccc2)c2cc(Cl)ccc21` [Diazepam, reference compound], the ED50 is 59 mg/kg in the data set with female white mice (setting [3]); 87 mg/kg in the data set with female white mice (setting [4]); 89 mg/kg in the data set on female white mice (setting [5]); 79 mg/kg in the data set with female white mice (setting [6]); 78 mg/kg in the data set on female white mice (setting [7]); 4.4 mg/kg with female white mice (setting [8]). The results for the ED50 in the data set with female white mice (setting [9]) and in the data set on female white mice (setting [10]) were 63 mg/kg and > 324 mg/kg, respectively.

In data set [1], `CN(C)CCCN1c2ccccc2Sc2ccc(Cl)cc21` [Chlorpromazine, reference compound] yielded a median lethal dose (LD50) at 24 h of 850 mg/kg. The ED50 in the data set with female white mice (setting [3]) came to 8 mg/kg; with female white mice (setting [4]), 7 mg/kg; in the data set with female white mice (setting [5]), 8 mg/kg; in the data set with female white mice (setting [6]) it was 7 mg/kg; in the data set with female white mice (setting [7]), 240 mg/kg; with female white mice (setting [8]) it was 8 mg/kg. Also, the median effective dose (ED50) in the data set with female white mice (setting [9]) is 5 mg/kg; in the data set on female white mice (setting [10]) it was > 324 mg/kg.

As usually defined, the LD50 is the dose at which mortality reaches 50%. By ED50 is commonly meant the midpoint of the dose-response relation.
